Where no end group is shown, it is not given here.
How the values were obtained:
[1] = biological target: Bk2, [Val]1[Thr]6-bradykinyl-Gln-Ser relative to bradykinin: R1V;S6T; C-terminal extension Gln10-Ser11; test: Intrinsic tryptophan (Trp82) fluorescence quenching titration; excitation 295 nm, emission 300-400 nm (analysed at 355 nm); details: 25 °C, not stated for the fluorescence assays at pH 5.0, 7.4 and 9.0 (2 mM Tris-HCl pH 7.4 is given only for DLS and CD)
Bradykinin (Bk) = Bradykinin (Bk) (UniProt P01042); test: as above; details: 25 °C, not stated for the fluorescence assays at pH 5.0, 7.4 and 9.0 (2 mM Tris-HCl pH 7.4 is given only for DLS and CD)
Sequence of UniProt P01042 (P01042 whole entry, looked up): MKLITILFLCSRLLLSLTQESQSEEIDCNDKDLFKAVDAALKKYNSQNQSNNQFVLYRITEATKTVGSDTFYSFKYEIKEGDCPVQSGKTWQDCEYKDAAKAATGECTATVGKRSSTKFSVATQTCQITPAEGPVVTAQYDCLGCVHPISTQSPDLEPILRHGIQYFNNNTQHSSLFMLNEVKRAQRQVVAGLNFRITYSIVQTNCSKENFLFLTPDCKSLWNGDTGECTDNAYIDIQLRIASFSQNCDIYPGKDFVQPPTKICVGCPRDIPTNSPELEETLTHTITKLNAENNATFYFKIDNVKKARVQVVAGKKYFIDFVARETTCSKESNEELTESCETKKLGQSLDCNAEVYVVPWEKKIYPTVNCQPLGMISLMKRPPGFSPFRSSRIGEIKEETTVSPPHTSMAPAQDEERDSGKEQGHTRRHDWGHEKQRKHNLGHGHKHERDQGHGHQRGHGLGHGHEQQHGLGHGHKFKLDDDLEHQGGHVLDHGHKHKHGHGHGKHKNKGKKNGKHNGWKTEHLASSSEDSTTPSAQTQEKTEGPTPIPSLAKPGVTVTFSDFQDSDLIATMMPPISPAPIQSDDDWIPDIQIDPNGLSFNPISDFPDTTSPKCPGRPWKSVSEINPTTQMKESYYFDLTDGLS

[2] = biological target: Bk1, [Val]1[Thr]6-bradykinyl-Val-Asp relative to bradykinin: R1V;S6T; C-terminal extension Val10-Asp11; test: as above; details: 25 °C, not stated for the fluorescence assays at pH 5.0, 7.4 and 9.0 (2 mM Tris-HCl pH 7.4 is given only for DLS and CD)
[3] = Dynamic light scattering, free peptides and free BTCI; format: physicochemical; details: 25 µM, 2 mM Tris-HCl pH 7.4, 37 °C
Experimental: (§1) The hydrodynamic properties of the BTCI through the complex formation with Bk and analogues were monitored using DLS technique with laser source operated at 800 nm on the DynaPro LSR model (Wyatt Technology Corporation, Santa Barbara, CA, USA). The internal temperature was controlled by a Peltier system coupled to the detector. The Bk, Bk-related peptides, BTCI and BTCI-Bk, BTCI-Bk-related peptides complexes, were incubated for 30 minutes in 2 mM Tris-HCl pH 7.4 and then centrifuged at 5000 g and filtered ([…]) before the DLS experiments. The average of 100 acquisitions for each measure was considered for BTCI (25 µM) and synthetic Bk-related peptides (25 µM) separately and subsequently for the BTCI-Bk complexes (1:1). The formation of complexes was analyzed at 37 °C, considering the relationship of the scattered light intensity signal and the hydrodynamic diameter of the samples, using the Dynamics V6 program (Wyatt Technology Corporation).

[4] = test system: guinea pig (Cavia porcellus) ileum; test: Smooth muscle constriction force assay, guinea pig ileum
Experimental: Male guinea pigs (Cavia porcellus) weighing between 200 and 300 g and fasted for 24 h were euthanized using an overdose of anesthetic at 120 mg/kg (ketamine and xylazine). The protocol was approved by the Committee on the Ethics of Animal Experiments of the Institute of Biology, University of Brasilia (Proc. Number 737402/2008). Segments of 2 cm from the terminal portion of the ileum were removed and washed in Tyrode’s solution (g/L: 8.00 NaCl,0.20 KCl, 0.20 CaCl2, 0.21 MgCl2), and attached to a glass rod that was immersed in a physiological bath chamber with a capacity of 10 mL containing Tyrode solution at 37 °C. In the opposite region, a thread of silk was attached to the F-60 isometric transducer connected to a polygraph (NARCO Bio-Systems, Houston, TX, USA). The bath was kept aerated constantly with carbogen (95% O2 + 5% CO2). Previously, as a control, smooth muscle response was analyzed using Bk from Sigma Aldrich. Experiments were done in triplicate, and constriction force was analyzed by addition of Bk and analogues in the absence or presence of BTCI, in three concentrations: 1, 5 or 10 µM. The hypotensive effects of the complexes were also evaluated in the presence of trypsin or chymotrypsin. After each experiment, the bath solution was exchanged three times in order to remove the drug used. Statistical analysis was carried out using the Paleontological Statistics (PAST) Software Package for Education and Data Analysis. A value of Student’s t-test p < 0.05 was considered to denote a significant difference.

BTCI [5] = test: Fluorescence quenching of BTCI by Bk-related peptides; format: binding, Vigna unguiculata; details: for Binding constant Kb (association) of BTCI in complex with peptide / Stern-Volmer quenching constant KSV of BTCI in complex with peptide: BTCI 25 µM, peptide 25-500 µM; for Stern-Volmer quenching constant KSV of BTCI in complex with peptide: excitation 295 nm, emission at 355 nm
Experimental: Fluorescence measurements were performed at pH 5.0, 7.4 and 9.0 and 25 °C using the Jasco FP-6500 spectrofluorimeter (Jasco Analytical Instruments) coupled to a Jasco ETC-273T Peltier system (Jasco Analytical Instruments) with water circulation. Both excitation and emission slit were fitted to 5.0 nm and the excitation and emission wavelength were 295 nm and 300–400 nm, respectively. The concentration of BTCI was 25 µM, whereas the concentration of Bk and Bk-related peptides varied from 25 to 500 µM. The BTCI in complex with peptides were investigated by fluorescence quenching as a function of pH. The averages of five fluorescence spectra were recorded and processed by the program Spectra Manager (Jasco Analytical Instruments). The fluorescence emissions were fitted according to the classic Stern-Volmer equation (Equation (2)): F0/F = 1 + KSV[Q] (2) where F and F0 are the fluorescence intensities in the presence and absence of quencher, respectively, KSV is Stern-Volmer constant and Q is the concentration of the quencher.
The binding constants for BTCI, Bk and Bk-related peptides interaction were calculated according to Equation (3): Log[(F0 − F)/F] = LogKb + nLog[Q] (3) where Kb is the binding constant and n is the number of binding sites per BTCI [47].

[6] = Cardiovascular effects of infusion of Bk and Bk-related peptides with BTCI or vehicle in anesthetized rats; format: in vivo, male Wistar rats; details: for aortic vasodilation (change in AVC) / change in mean arterial pressure (MAP) / renal vasodilation (change in RVC): from the baseline value, mean ± SEM, 6 experiments
Experimental: All experiments were conducted on adult male Wistar rats (280–350 g). They were obtained from the central animal house of the Federal University of Goiás. Experimental procedures were designed with strict adherence to the National Health Institute Guidelines for Care and Use of Laboratory Animals as approved by the Ethics Committee, Federal University of Goiás (034/12).
On the day of experiments, the rats were anesthetized with halothane (2%–3% in 100% O2; Cristália Ltda, Itapira, SP, Brazil) prior to the catheterization of the right femoral vein and artery. After the catheter placement, the rats were removed from the halothane and the anesthesia was maintained with urethane (1.2 g·kg^−1 b.wt., i.v.; Sigma-Aldrich Co.). The trachea was cannulated to reduce airway resistance. The body temperature was kept at 37 ± 0.5 °C with a thermostatically controlled heated table.
Renal blood flow (RBF) and aortic blood flow (ABF) were measured with an ultrasonic transit-time flowmeter (Transonic Systems, Inc., Ithaca, NY, USA). Data were recorded continuously with an analog-to-digital converter (PowerLab 4/25, ML845, AD Instruments, Bella Vista, Australia). Mean arterial pressure (MAP) was determined from the pulsatile signal. Aortic vascular conductance (AVC) and renal vascular conductance (RVC) were calculated by a ratio of ABF and RBF divided by MAP, and were expressed as percentage of baseline. Increasing doses of BTCI (0.3, 3, 30 and 300 µg·kg^−1, i.v.) were infused.
Results are presented as means ± S.E.M. The effects of infusion of Bk, Bk-related peptides and BTCI on cardiovascular parameters were analyzed by one-way ANOVA. […] A value of Student’s t-test p < 0.05 was considered to denote a significant difference.

BTCI [7] = test: Dynamic light scattering, BTCI-Bk complex formation; format: binding, Vigna unguiculata; details: BTCI 25 µM : peptide 25 µM (1:1), 30 min, 2 mM Tris-HCl pH 7.4, 37 °C
Experimental: as §1

trypsin = test: Pretreatment of peptides with trypsin; format: in vitro ADME
[8] = peptide 120 µg·kg^−1 + BTCI 3 µg·kg^−1, i.v.
[9] = peptide 120 µg·kg^−1 i.v. + BTCI 3 µg·kg^−1 i.v.
[10] = peptide 120 µg·kg^−1 i.v., without BTCI

Substance: Black-eyed pea trypsin and chymotrypsin inhibitor (BTCI), Bowman-Birk inhibitor
- Kb ([1]; pH 5.0): 0.59 ×10^3 M^−1
- Kb ([1]; pH 7.4): 0.22 ×10^3 M^−1
- Kb ([1]; pH 9.0): 1.81 ×10^3 M^−1
- Kb (Bradykinin (Bk); pH 5.0): 0.21 ×10^3 M^−1
- Kb (Bradykinin (Bk); pH 7.4): 9.68 ×10^3 M^−1
- Kb (Bradykinin (Bk); pH 9.0): 0.71 ×10^3 M^−1
- Kb ([2]; pH 5.0): 0.84 ×10^3 M^−1
- Kb ([2]; pH 7.4): 1.02 ×10^3 M^−1
- Kb ([2]; pH 9.0): 0.23 ×10^3 M^−1

Substance: Bradykinin [Bk, reference compound]
- polydispersity, peptide [3]: lower than 0.15
- effect of BTCI on Bk-induced smooth muscle contraction ([4]; Bk 5.0 µM): slightly increased the smooth muscle contraction
- effect of BTCI on Bk-induced smooth muscle contraction ([4]; Bk 10.0 µM): the same effect only when BTCI inhibited trypsin
- smooth muscle contraction ([4]; free peptide, 1, 5, 10 µM, 37 °C, triplicate): able to induce smooth muscle contraction in a concentration-responsive manner
- smooth muscle contraction in association with BTCI in the presence of serine proteases ([4]; with BTCI and trypsin or chymotrypsin, 1.0, 5.0, 10.0 µM): able to induce smooth muscle contraction in a concentration-responsive manner even in association with BTCI in the presence of serine proteases
- binding sites (n) per BTCI molecule (BTCI [5]; pH 5.0, 25 °C): 0.88
- Binding constant Kb (association) of BTCI in complex with peptide (BTCI [5]; pH 5.0, 25 °C): 210 M⁻¹
- Stern-Volmer quenching constant KSV of BTCI in complex with peptide (BTCI [5]; pH 5.0, 25 °C): 502 M⁻¹
- binding sites (n) per BTCI molecule (BTCI [5]; pH 7.4, 25 °C): 1.39
- Binding constant Kb (association) of BTCI in complex with peptide (BTCI [5]; pH 7.4, 25 °C): 9680 M⁻¹
- Stern-Volmer quenching constant KSV of BTCI in complex with peptide (BTCI [5]; pH 7.4, 25 °C): 553 M⁻¹
- binding sites (n) per BTCI molecule (BTCI [5]; pH 9.0, 25 °C): 1.06
- Binding constant Kb (association) of BTCI in complex with peptide (BTCI [5]; pH 9.0, 25 °C): 710 M⁻¹
- Stern-Volmer quenching constant KSV of BTCI in complex with peptide (BTCI [5]; pH 9.0, 25 °C): 468 M⁻¹
- fluorescence intensity of BTCI (Trp^82) on addition of peptide (BTCI [5]; peptide 25 to 500 µM): progressive decrease in fluorescence intensity
- effect of association with BTCI on aortic vasodilation [6, 8]: potentiated
- effect of association with BTCI on renal vasodilation [6, 8]: potentiated renal
- aortic vasodilation (change in AVC) [6, 9]: 16 ± 1.4%
- change in mean arterial pressure (MAP) [6, 9]: −10 ± 1.1 mmHg
- renal vasodilation (change in RVC) [6, 9]: 12 ± 1.1%
- aortic vasodilation (change in AVC) [6, 10]: 9 ± 1.6%
- change in mean arterial pressure (MAP) [6, 10]: −7 ± 1.2 mmHg
- renal vasodilation (change in RVC) [6, 10]: 9 ± 2%
- hydrodynamic diameter of BTCI in the presence of peptide (BTCI [7]): increased from 1.7 nm to 3.3 nm

Substance: VPPGFTPFRVD [Bk1, [Val]^1[Thr]^6-bradykinyl-Val-Asp]
- product released by trypsin pretreatment in vitro (trypsin; HPLC and mass spectrometry, data not shown): release the active Bk fragment
- cleavage by trypsin (site) (trypsin; pretreatment with trypsin): cleaved on Arg^9-Val^10

Reference: article PMC6271500, “Bowman-Birk Protease Inhibitor from Vigna unguiculata Seeds Enhances the Action of Bradykinin-Related Peptides” (Molecules, 2014)
